In PubChem BioAssay (NCI):
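Cells were grown in 96-well plates and exposed to each compound for 48 hours at five concentrations; endpoints were interpolated linearly between bracketing concentrations, or set to the highest concentration if not reached. At the TGI there is no net growth.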

What was measured:
Assay in all cases: NCI anticancer screen, dose series, 48 h
MDA-MB-435 = system: MDA-MB-435
786-0 renal = system: 786-0 renal
SF-539 CNS = system: SF-539 CNS
SF-295 CNS = system: SF-295 CNS
SN12C renal = system: SN12C renal
RXF 393 renal = system: RXF 393 renal
A549 NSCLC = system: A549 NSCLC
NCI-H522 lung = system: NCI-H522 lung
SK-OV-3 ovarian = system: SK-OV-3 ovarian
SK-MEL-2 melanoma = system: SK-MEL-2 melanoma
MCF7 breast = system: MCF7 breast
OVCAR-4 ovarian = system: OVCAR-4 ovarian
SNB-19 CNS = system: SNB-19 CNS
M14 melanoma = system: M14 melanoma
NCI-H226 lung = system: NCI-H226 lung
EKVX NSCLC = system: EKVX NSCLC
SW-620 colon = system: SW-620 colon
NCI-H460 lung = system: NCI-H460 lung
MDA-MB-231 breast = system: MDA-MB-231 breast

SMILES | TGI (MDA-MB-435) | TGI (786-0 renal) | TGI (SF-539 CNS) | TGI (SF-295 CNS) | TGI (SN12C renal) | TGI (RXF 393 renal) | TGI (A549 NSCLC) | TGI (NCI-H522 lung) | TGI (SK-OV-3 ovarian) | TGI (SK-MEL-2 melanoma) | TGI (MCF7 breast) | TGI (OVCAR-4 ovarian) | TGI (SNB-19 CNS) | TGI (M14 melanoma) | TGI (NCI-H226 lung) | TGI (EKVX NSCLC) | TGI (SW-620 colon) | TGI (NCI-H460 lung) | TGI (MDA-MB-231 breast)
CNc1ncnc2c1nnn2C | > 100 µM | > 100 µM | > 100 µM | > 100 µM | > 100 µM | > 100 µM | > 100 µM | > 100 µM | > 100 µM | > 100 µM | > 100 µM | > 100 µM | > 100 µM | > 100 µM | > 100 µM | > 100 µM | > 100 µM | – | –
N#Cc1ccc(Nc2cnc3ccc(N)cc3n2)cc1 | – | > 100 µM | > 100 µM | > 100 µM | > 100 µM | > 100 µM | > 100 µM | > 100 µM | > 100 µM | > 100 µM | – | > 100 µM | > 100 µM | > 100 µM | > 100 µM | > 100 µM | > 100 µM | > 100 µM | –
CC(C)N1CCC2(CC1)NNc1ncccc1-n1cccc12 | – | > 100 µM | > 100 µM | > 100 µM | > 100 µM | – | > 100 µM | > 100 µM | – | > 100 µM | – | > 100 µM | > 100 µM | > 100 µM | > 100 µM | > 100 µM | > 100 µM | > 100 µM | –
CC1C2CC(CC2N)C1(C)C (stereo not drawn) | > 100 µM | > 100 µM | > 100 µM | > 100 µM | > 100 µM | – | > 100 µM | > 100 µM | > 100 µM | – | > 100 µM | > 100 µM | > 100 µM | > 100 µM | > 100 µM | > 100 µM | > 100 µM | > 100 µM | > 100 µM
CC1(C)OCC(COC(=O)NCn2cc(-c3ccccc3)nn2)O1 (stereo not drawn) | – | > 100 µM | > 100 µM | > 100 µM | > 100 µM | – | > 100 µM | > 100 µM | – | > 100 µM | > 100 µM | > 100 µM | > 100 µM | > 100 µM | > 100 µM | > 100 µM | > 100 µM | > 100 µM | > 100 µM
O=C(NC12CC3CC(CC(C3)C1)C2)C(=O)c1c[nH]c2ccc([N+](=O)[O-])cc12 | – | 45.9 µM | > 100 µM | 37.9 µM | > 100 µM | > 94.6 µM | > 41.1 µM | > 100 µM | > 100 µM | > 100 µM | – | 54.4 µM | > 30.3 µM | > 100 µM | 63.6 µM | > 100 µM | > 100 µM | > 72.3 µM | –
c1ccc(CCN2CCN=C2Cc2ccccc2)cc1 | – | > 100 µM | – | > 100 µM | > 100 µM | > 100 µM | > 100 µM | > 100 µM | > 100 µM | > 100 µM | > 100 µM | > 100 µM | > 100 µM | > 100 µM | > 100 µM | > 100 µM | > 100 µM | > 100 µM | > 100 µM
